Consider 21 molecules from patent US7807781B2, “Inhibitors of serine protease activity and their use in methods and compositions for treatment of viral infections” (The Regents of the University of Colorado, priority 1999, dated 2010).

B1: UTI: Human urinary trypsin inhibitor, a protein indistinguishable from ITI (protein, UniProt P02760 206-352, looked up)
Inter-alpha-trypsin inhibitor …: AVLPQEEEGSGGGQLVTEVTKKEDSCQLGYSAGPCMGMTSRYFYNGTSMACETFQYGGCMGNGNNFVTEKECLQTCRTVAACNLPIVRGPCRAFIQLWAFDAVKGKCVLFPYGGCQGNGNKFYSEKECREYCGVPGDGDEELLRFSN
modifications: Inter-alpha-trypsin inhibitor light chain

One test deals with HIV-1 production in U1 cells. The test is described as follows: U1 monocytic cell assay, IL-18-induced HIV-1 p24 antigen. It is filed as cell-based. The following applies: doses comparable to the composition of the invention (FIG. 6). An excerpt:
U1 monocytic cell assay. U1 cells are obtained from the AIDS Research and Reference Reagent Program, National Institute of Allergy and Infectious Diseases, NIH. U1 cells are maintained in T-175 polystyrene flasks (Falcon, Becton Dickinson, Franklin Lakes, N.J.) in medium and used when in log phase growth. Cells are counted in a hemacytometer, examined for viability by Trypan blue exclusion (>95% for all experiments) and resuspended in fresh medium at 2×10^6 per ml. Two-hundred fifty […] are added to wells of 24-well polystyrene tissue culture plates (Falcon), followed by the addition of medium or AAT to produce the final concentration to be tested in a volume of […]. After 1.0 hr of incubation (37° C., 5% CO2), 50 ml of medium (control) or stimulus diluted in medium are added to wells to produce the final concentration of stimulus to be tested. The final culture volumes are […] and contained 1×10^6 cells per ml. After 48 hr of incubation (37° C. and 5% CO2) 50 ml of 10% (vol/vol) Triton-X-100 (Fisher Scientific, Fair Lawn, N.J.) is added to each culture (final concentration of 1% vol/vol), and cultures are frozen and thawed once. This is followed by assay for HIV-1 p24 antigen by ELISA with a lower limit of detection of 31 pg/ml (NCI-Frederick Cancer Research and Development Center, Frederick, Md.). The disruption of cells due to the addition of Triton-X-100 and the freeze-thaw cycle produced cell lysates and enabled assessment of total (secreted and cell-associated) production of p24 antigen.
Data are presented as means±SEM. Group means are compared by ANOVA using Fisher's least significant difference. For data expressed as percent change, the values for p24 in control cultures (medium alone) are subtracted from those for each culture-containing stimulus. The p24 concentrations in cultures conducted in the presence of stimulus alone are set at 100%. Percent p24 in cultures containing stimulus and AAT are calculated by dividing the measured p24 by that present in cultures containing stimulus alone. The resultant fraction is expressed as a percent.
The U1 cell line is derived from human monocytic U937 cells into which 2 copies of HIV-1 provirus are incorporated into host genome. Exposing U1 cells to pro-inflammatory cytokines such as IL-18, IL-1, IL-6 and TNF, phorbol esters or hyperosmolarity results in the induction of HIV-1 as assessed by p24 antigen. Stimulation of U1 cells with 0.5 nM IL-18 induced large amounts of p24 antigen after 48 hr of incubation in 3 separate experiments. U1 cells cultured in medium alone (control) contained a mean of 41.3±11.5 pg/ml p24 antigen, which is increased 150-fold to 6,235±1,775 pg/ml p24 following stimulation with IL-18. […] At 1, 2 and 3 mg/ml AAT, the percent reductions observed compared to stimulation with IL-18 alone are 65±1.8, 93±3.0 and 98±1%, respectively.
For “Prolastin: commercially available purified variant of AAT sold by Bayer, used as control AAT preparation”, the anti-HIV activity entry was “fails to display anti-HIV activity”.

Still in this test, the particulars now being: same experimental condition as in Example 1 (FIG. 11).
With `Cc1cccc(Cc2nnc(C(=O)C(NC(=O)[C@@H]3CCCN3C(=O)[C@@H](NC(=O)OCc3ccccc3)C(C)C)C(C)C)o2)c1` (stereo partly shown) [P3 inh], the anti-HIV effect result was “significant anti-HIV effect”.

For a further test, the system named is HIV-1 strain A018A in MAGI-CCR-5 cells.
Assay: not given
The conditions noted are these: compared with FVYLI (FIG. 4); alone or in combination; not shown. It is filed as cell-based.
Take “FIIMI: short peptide related to C-terminal pentapeptide of AAT”: the “effect on HIV production in MAGI cells” value is on record as “more or less similar effect”. On the same count and under the same terms, as for “FMLLI: short peptide related to C-terminal pentapeptide of AAT”, the entry is “more or less similar effect”; as for “FVFLA: short peptide related to C-terminal pentapeptide of AAT”, “more or less similar effect”.

In the case of “FLMII: short peptide related to C-terminal pentapeptide of AAT”, the “effect on HIV production in MAGI cells” value is listed as “more or less similar effect”. For “FLFLI: short peptide related to C-terminal pentapeptide of AAT”, the “effect on HIV production in MAGI cells” value is “more or less similar effect”. Same read-out and setting: the result for “FLFVL: short peptide related to C-terminal pentapeptide of AAT” reads “more or less similar effect”. Same read-out and setting: the result for “AVFLM: short peptide related to C-terminal pentapeptide of AAT” reads “more or less similar effect”; that for “FLFVV: short peptide related to C-terminal pentapeptide of AAT”, “more or less similar effect”; that for “FVFLM: short peptide related to C-terminal pentapeptide of AAT”, “more or less similar effect”. Same read-out and setting: as for “FLMFI: short peptide related to C-terminal pentapeptide of AAT”, the entry is “more or less similar effect”; as for “FVALM: short peptide related to C-terminal pentapeptide of AAT”, “more or less similar effect”.

In the case of “FAFLM: short peptide related to C-terminal pentapeptide of AAT”, the “effect on HIV production in MAGI cells” value was “more or less similar effect”. Still for that read-out and setting: as for “FLFFI: short peptide related to C-terminal pentapeptide of AAT”, the entry is “more or less similar effect”. With “FLFAV: short peptide related to C-terminal pentapeptide of AAT”, the “effect on HIV production in MAGI cells” value is on record as “more or less similar effect”. Same read-out and setting: the result for “FLFCI: short peptide related to C-terminal pentapeptide of AAT” reads “more or less similar effect”. Same read-out and setting: as for “FVFAM: short peptide related to C-terminal pentapeptide of AAT”, the entry is “more or less similar effect”; as for “FVYLI: carboxyterminal peptide derived but not necessarily identical to a respective C-terminal pentapeptide from AAT”, “more or less similar effect”; as for “FLVFI: short peptide related to C-terminal pentapeptide of AAT”, “more or less similar effect”.

The next test relates to NF-κB. Put plainly: IL-18-induced NF-κB expression. The class given is cell-based. The following applies: compared with IL-18 alone (lane 4).
On to `Cc1cccc(Cc2nnc(C(=O)C(NC(=O)[C@@H]3CCCN3C(=O)[C@@H](NC(=O)OCc3ccccc3)C(C)C)C(C)C)o2)c1` (stereo partly shown) [P3 inh], for which the “IL-18-induced NF-κB expression” value is given as “reduced”.

A further test concerns HIV-infected CCRF-CEM and uninfected Molt-4 cells.
Assay: not given
The following applies: cited from earlier work.
As to B1, the “concentration range of dose-dependent inhibition of syncytium formation” value was 0.1 to 1 mM.
